From PMC10906223 (JCI Insight, 2024)
“And” between values parts separate entries of the source, which are not always exact repeats. Identical values can stand only once.

Experiments:
diabetic NOD mice = assay: Insulin tolerance test in NOD mice; type: in vivo, mouse; settings: WCDD301 dosing
Excerpt: Following a 4-hour fast, nondiabetic placebo-treated (n = 4), diabetic placebo-treated (n = 4), and diabetic WCDD301-treated (n = 4) NOD female mice were intraperitoneally injected with insulin (Humulin-R; 0.75 U/kg, Eli Lilly and Company). […]

[1] = test system: murine dispersed islet cells; assay: Glucagon secretion from murine dispersed islet cells; type: cell-based, mouse; settings: for Relative secretion of glucagon: one value per mouse
Description: Pancreata of nondiabetic C57BL/6J mice were digested using collagenase P (Roche Diagnostics, catalog 11213873001), and islets were manually picked up using a stereomicroscope (ZEISS Stemi 305). […] Isolated mouse islets or provided human islets were dispersed as described ([28]). Briefly, 100–120 islets were washed 2 times using modified HBSS, then dispersed in 600 μL Accutase (Innovative Cell Technologies, catalog AT-104) by gently pipetting up and down for 7 minutes at 37°C. […] Following refreshing of KRBH, cells were dispensed in 8 microfuge tubes (2,000 cells/tube) and treated with WCDD301, preclustered Ephrin-A5 Fc, or preclustered Fc in the presence or absence of the competitive inhibitor of EphA4 receptor, rhyncophylline ([60]) (MilliporeSigma, catalog SML2345). In the presence or absence of these effectors, secretion assay was performed sequentially as shown in Supplemental Table 5. […] Preclustering of Ephrin-A5 Fc was done by mixing Ephrin-A5 Fc or Fc alone (BioLegend, catalog 790102) with anti-Fc antibody (Invitrogen, catalog A16086) (1:10 molar ratio) 20 minutes before treatment ([62]). […] Shedding of cleaved EphA4 was measured from the cell culture medium. Experiments were performed by dispersion of 200 islets, and EphA4 levels in media were measured by EphA4 ELISA (ABclonal, catalog RK06572).

[2] = test system: human dispersed islet cells; assay: Immunofluorescence: EphA4 intensity in glucagon+ human dispersed islet cells; type: cell-based;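 for EphA4 intensity: ImageJ intensity within ROI drawn around each glucagon+ cell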
Description: Coverslips were treated with WCDD301, preclustered Ephrin-A5 Fc, or preclustered Fc in the following sequential order: KRBH (11 mM glucose, 30 minutes), KRBH (1 mM glucose, 60 minutes), KRBH (1 mM glucose, 30 minutes), and KRBH (11 mM glucose, 60 minutes). After treatment, coverslips were washed once in PBS, fixed in 2% paraformaldehyde in PBS (30 minutes), and again washed in PBS. […] Following wash in PBS, coverslips were incubated in a mixture of Alexa Fluor 555 Phalloidin (Cell Signaling Technology, catalog 8953) and secondary antibodies (goat anti-rabbit Alexa Fluor 488, catalog A-21094, 1:1,000, Molecular Probes; and goat anti-mouse Alexa Fluor 633, catalog A21052, 1:1,000, Life Technologies) for 1 hour at RT. Both primary and secondary antibodies were diluted in blocking buffer containing 0.05% Tween 20. Coverslips were washed using PBS and counterstained by using DAPI (1:1,000) for 10 minutes. Following 2 washes in PBS, coverslips were mounted on glass slides using ProLong Glass Antifade Mountant (Invitrogen, catalog P36980). Images were captured using the Zeiss LSM880 microscope with a Plan-Apochromat 63× 1.4 NA objective lens by setting dual-band dichroic/filter for 405, 488, 561, and 633 nm laser excitation. For each slide, 25–30 fields of view were scanned, and in each field of view, 3–5 cells were imaged. […] Values of intensity were compared among groups using 1-way ANOVA, α = 0.05.

NOD mice = assay: Blood chemistry parameters in WCDD301-treated NOD mice; type: in vivo, mouse
Description: Terminal blood was collected into microfuge tubes containing K2-EDTA (supplemented by 45 mM phenylmethylsulphonyl fluoride and 0.77 μM aprotinin) through cardiac puncture. Plasma was separated by centrifugation (2,000g for 10 minutes at 4°C) and kept at –80°C until analysis. Plasma samples with hemolysis were excluded from the study. […] Values of BUN, creatinine, ALB, ALT, and AST were determined by a Roche Cobas C501 Autoanalyzer as performed by the Washington University Diabetes Research Center Translational Diagnostics Core. Reference intervals of blood chemistry parameters for inbred NOD mice were extracted from the Mouse Phenome Database (https://phenome.jax.org/).

With `CC(=O)OCC(N)(COC(C)=O)COC(C)=O` [WCDD301, 2-(acetoxymethyl)-2-aminopropane-1,3-diyl diacetate] the “Blood glucose in insulin tolerance test, Normalize with basal (0 min) (Figure 6E)” value (diabetic NOD mice; 15 min) was 0.89 and 0.91 and 0.86 and 0.88, the “Blood glucose in insulin tolerance test, Normalize with basal (0 min) (Figure 6E)” value (diabetic NOD mice; 30 min) was 0.67 and 0.69 and 0.65 and 0.68 and the “Blood glucose in insulin tolerance test, Normalize with basal (0 min) (Figure 6E)” value (diabetic NOD mice; 45 min) was 0.67 and 0.74 and 0.62 and 0.66. The “Blood glucose in insulin tolerance test, Normalize with basal (0 min) (Figure 6E)” value (diabetic NOD mice; 60 min) was 0.71 and 0.73 and 0.77 and 0.72, the “Blood glucose in insulin tolerance test, Normalize with basal (0 min) (Figure 6E)” value (diabetic NOD mice; 90 min) was 0.7 and 0.8 and 0.75 and 0.96 and the “Blood glucose in insulin tolerance test, Normalize with basal (0 min) (Figure 6E)” value (diabetic NOD mice; 120 min) was 0.89 and 0.85 and 0.9 and 0.93. For the same molecule, the “Effect on arginine-stimulated glucagon secretion” value ([1]; 1 mM and 11 mM glucose, Arg 25 mM, 301 3 µM, E 4 µg/mL, Supplemental Figure 2) was “its effect was suppressed”, the “Effect on glucagon secretion” value ([1]; 11 mM glucose, Figure 1F) was “suppressed glucagon secretion” and the Secretion of glucagon ([1]; 301 (1.5 µM) + Rhy (2.5 µM), Glucose (1 mM), Figure 1H) was 1.25 and 1.09 and 1.1 and 1.05 and 1. For the same molecule, the Secretion of glucagon ([1]; 301 (1.5 µM) + Rhy (2.5 µM), Glucose (11 mM), Figure 1H) was 0.64 and 0.69 and 0.7 and 0.75 and 0.72, the “Relative secretion of glucagon” value ([1]; 301 (1.5 µM), Glucose (1 mM), Figure 1F) was 0.81 and 0.78 and 0.75 and 0.68 and 0.86 and the “Relative secretion of glucagon” value ([1]; 301 (1.5 µM), Glucose (11 mM), Figure 1F) was 0.91 and 0.85 and 1.05 and 0.78 and 1.01. The Secretion of glucagon ([1]; 301 (3 µM) + Rhy (2.5 µM), Glucose (1 mM), Figure 1H) was 0.87 and 0.81 and 0.9 and 0.85 and 0.8, the Secretion of glucagon ([1]; 301 (3 µM) + Rhy (2.5 µM), Glucose (11 mM), Figure 1H) was 0.41 and 0.5 and 0.46 and 0.45 and 0.48 and the “Relative secretion of glucagon” value ([1]; 301 (3 µM), Glucose (1 mM), Figure 1F) was 0.89 and 0.7 and 0.75 and 0.68. For the same molecule, the “Relative secretion of glucagon” value ([1]; 301 (3 µM), Glucose (11 mM), Figure 1F) was 0.83 and 0.75 and 0.7 and 0.8 and 0.87, the “Glucagon secretion in presence of rhyncophylline” value ([1]; WCDD301 3 μM, Figure 1H) was “outcompeted the inhibitor” and the EphA4 intensity ([2]; human cells, individual values, Figure 3G) was 58.8 and 45.8 and 8.0 and 57.8 and 32.5 and 5.4 and 45.9 and 14.9 and 11.0. The “Effect on intracellular EphA4” value ([2]; α cells, human donors) was “increased intracellular EphA4 intensity”, the “Blood chemistry markers (BUN, creatinine, ALB, ALT, AST)” value (NOD mice; WCDD301-treated animals) was “remained in the normal range” and the “Creatinine (CREAT)” value (NOD mice; non-diabetic NOD mice, 19-week-old, treated with WCDD301, mean ± SEM, n=5, reference interval 0.2-0.5) was 0.2 ± 0.1 mg/dL. For the same molecule, the “Albumin (ALB)” value (NOD mice; non-diabetic NOD mice, 19-week-old, treated with WCDD301, mean ± SEM, n=5, reference interval 1.72-3.54) was 3 ± 0.1 g/dL, the “Alanine aminotransferase (ALT)” value (NOD mice; non-diabetic NOD mice, 19-week-old, treated with WCDD301, mean ± SEM, n=5, reference interval 5-394) was 20.5±9.5 IU/L and the “Blood urea nitrogen (BUN)” value (NOD mice; non-diabetic NOD mice, 19-week-old, treated with WCDD301, mean ± SEM, n=5, reference interval 10-79) was 21 ± 2.3 mg/dL. For the same molecule, the “Aspartate aminotransferase (AST)” value (NOD mice; non-diabetic NOD mice, 19-week-old, treated with WCDD301, mean ± SEM, n=5, reference interval 18-586) was 99.5±57.5 IU/L.
